Source: patent publication US4891450A, “Process for intermediates for insecticidal compounds” (Imperial Chemical Industries PLC, priority 1987, dated 1990)

Key:
Format in all cases: in vivo
[1] = system: Nilaparvata lugens (brown plant hopper - nymphs); test: Contact test, mortality of Nilaparvata lugens nymphs on Rice plant (NL); details: 72 h, 3 days, read-out: grading of mortality, NL
Procedure: (§1) The activity of the Product was determined using a variety of insect pests The Product was used in the form of liquid preparations containing from 100 to 500 parts per million (ppm) by weight of the Product. The preparations were made by dissolving the Product in acetone and diluting the solutions with water containing 0.1% by weight of a wetting agent sold under the trade name "SYNPERONIC" NX until the liquid preparations contained the required concentration of the Product "SYNPERONIC" is a Registered Trade Mark.
(§2) The test procedure adopted with regard to each pest was basically the same and comprised supporting a number of the pests on a medium which was usually a host plant or a foodstuff on which the pests feed, and treating either or both the pests and the medium with the preparations. The mortality of the pests was then assessed at periods usually varying from one to seven days after the treatment.
(§3) The results of the tests are given in Table III for each of the Products, at the rate in parts per million given in the second column as a grading of mortality designated as A, B or C wherein A indicates 80-100% mortality or knockdown, B indicates 50-79% mortality knockdown or knockdown and C indicates less than 50% mortality or knockdown.
(§4) In Table III the pest organism used is designated by a letter code and the pests species, the support medium or food, and the type and duration of test is given in Table II.

[2] = system: Diabrotica balteata (rootworm larvae); test: Residual test, mortality of Diabrotica balteata larvae, Filter paper/maize seed (DB); details: 72 h, 3 days, read-out: grading of mortality, DB
Procedure: as §1, §2, §3, §4

[3] = system: Blattela germanica (cockroach nymphs); test: Residual test, mortality of Blattela germanica nymphs (BG); details: 3 days
Procedure: as §1, §2, §3, §4

[4] = system: Musca domestica (houseflies - adults); test: Contact test, mortality of Musca domestica adults (MD); details: 24 h, 1 day, read-out: grading of mortality, MD
Procedure: as §1, §2, §3, §4

[5] = system: Heliothis virescens (tobacco budworm - larvae); test: whole plant or invertebrate; details: in Gossypium hirsutum, 72 h, read-out: grading of mortality, HV
Procedure: as §1, §2, §3, §4
(tobacco budworm - larvae)

[6] = system: Tetranychus urticae (spider mites - adult); test: Contact test, mortality of Tetranychus urticae adults on French bean leaf (TUa); details: 72 h, 3 days, read-out: grading of mortality, TuA
Procedure: as §1, §2, §3, §4

Myzus persicae (aphids) = test: Contact test, mortality of Myzus persicae on Chinese Cabbage leaf (MP); details: 72 h, 3 days, read-out: grading of mortality, MP
Procedure: as §1, §2, §3, §4

[7] = system: Spodoptera exigua (lesser army worm - larvae); test: Residual test, mortality of Spodoptera exigua larvae on Cotton leaf (SP); details: 72 h, 3 days, read-out: grading of mortality, SP
Procedure: as §1, §2, §3, §4
(lesser army worm - larvae)

[8] = system: Tetranychus urticae (spider mites - ova); test: Contact test, mortality of Tetranychus urticae ova on French bean leaf (TUe); details: 144 h, 6 days, read-out: grading of mortality, TuE
Procedure: as §1, §2, §3, §4

| SMILES | mortality at 250 ppm ([1]; 250 ppm) [%] | mortality at 250 ppm ([2]; 250 ppm) [%] | grading of mortality, BG ([3]; 250 ppm) | mortality at 250 ppm ([4]; 250 ppm) [%] | mortality at 250 ppm [5] [%] | mortality at 250 ppm ([6]; 250 ppm) [%] | mortality at 250 ppm (Myzus persicae (aphids); 250 ppm) [%] | mortality at 500 ppm [1] [%] | mortality at 500 ppm [2] [%] | grading of mortality, BG ([3]; 500 ppm) | mortality at 500 ppm [4] [%] | mortality at 500 ppm [5] [%] | mortality at 500 ppm [6] [%] | mortality at 500 ppm (Myzus persicae (aphids)) [%] | mortality at 500 ppm [7] [%] | mortality at 500 ppm [8] [%] |
| --- | --- | --- | --- | --- | --- | --- | --- | --- | --- | --- | --- | --- | --- | --- | --- | --- |
| CCOc1ccc(C(COCc2cccc(Oc3ccc(Cl)cc3)c2)C(F)(F)F)cc1 (racemic) [Compound 3, (RS)-1,1,1-trifluoro-2-(4-ethoxyphenyl)-3-[3-(4-chlorophenoxy)benzyloxy]propane] | 80 to 100 | 80 to 100 | A (80-100% mortality or knockdown) | 80 to 100 | < 50 | < 50 | 80 to 100 | – | – | – | – | – | – | – | – | – |
| CCOc1ccc(C(COCc2ccc(F)c(Oc3ccc(Cl)cc3)c2)C(F)(F)F)cc1 (racemic) [Compound 5, (RS)-1,1,1-trifluoro-2-(4-ethoxyphenyl)-3-[3-(4-chlorophenoxy)-4-fluorobenzyloxy]propane] | – | – | – | – | – | – | – | 80 to 100 | 80 to 100 | A (80-100% mortality or knockdown) | 80 to 100 | 80 to 100 | 50 to 79 | 80 to 100 | – | – |
| Fc1ccc(COCC(c2ccc(OC(F)(F)F)cc2)C(F)(F)F)cc1Oc1ccc(Cl)cc1 (racemic) [Compound 29, (RS)-1,1,1-Trifluoro-2-(4-trifluoromethoxyphenyl)-3-[3-(4-chlorophenoxy)-4-fluorobenzyloxy]propane] | – | – | – | – | – | – | – | 80 to 100 | 80 to 100 | A (80-100% mortality or knockdown) | 80 to 100 | 80 to 100 | 80 to 100 | 80 to 100 | 80 to 100 | 80 to 100 |
| Fc1ccc(COCC(c2ccc(C(F)(F)F)cc2)C(F)(F)F)cc1Oc1ccccc1 (racemic) [Compound 38, (RS)-1,1,1-Trifluoro-2-(4-trifluoromethylphenyl)-3-(3-phenoxy-4-fluorobenzyloxy) propane] | – | – | – | – | – | – | – | 80 to 100 | 80 to 100 | A (80-100% mortality or knockdown) | 80 to 100 | 80 to 100 | 80 to 100 | 80 to 100 | 80 to 100 | 80 to 100 |
| FC(F)(F)c1ccc(C(COCc2cccc(Oc3ccccc3)c2)C(F)(F)F)cc1 (racemic) [Compound 39, (RS)-1,1,1-Trifluoro-2-(4-trifluoromethylphenyl)-3-(3-phenoxybenzyloxy)propane] | – | – | – | – | – | – | – | 80 to 100 | 80 to 100 | A (80-100% mortality or knockdown) | 80 to 100 | 80 to 100 | < 50 | 80 to 100 | 80 to 100 | 80 to 100 |
